Results published in BindingDB's records for doi:10.3109/10799899109064686 (Center For Bio-Pharmaceutical Sciences, 1991).

What was measured:
Adenosine receptor A1 = target: T1, Adenosine receptor A1 (Rattus norvegicus, UniProt P25099)
T1 sequence (P25099 whole entry): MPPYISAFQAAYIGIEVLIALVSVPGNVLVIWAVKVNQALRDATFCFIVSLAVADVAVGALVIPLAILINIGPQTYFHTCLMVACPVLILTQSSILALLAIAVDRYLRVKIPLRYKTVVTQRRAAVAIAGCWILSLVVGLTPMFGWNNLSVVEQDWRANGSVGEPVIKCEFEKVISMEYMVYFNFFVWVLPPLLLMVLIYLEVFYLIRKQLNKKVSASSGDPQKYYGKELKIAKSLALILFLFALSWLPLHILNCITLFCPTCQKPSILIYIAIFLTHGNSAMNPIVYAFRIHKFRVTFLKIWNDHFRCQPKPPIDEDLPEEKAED

Mu-type opioid receptor = Mu-type opioid receptor (Rattus norvegicus, UniProt P33535)
Chain of Mu-type opioid receptor (P33535 whole entry): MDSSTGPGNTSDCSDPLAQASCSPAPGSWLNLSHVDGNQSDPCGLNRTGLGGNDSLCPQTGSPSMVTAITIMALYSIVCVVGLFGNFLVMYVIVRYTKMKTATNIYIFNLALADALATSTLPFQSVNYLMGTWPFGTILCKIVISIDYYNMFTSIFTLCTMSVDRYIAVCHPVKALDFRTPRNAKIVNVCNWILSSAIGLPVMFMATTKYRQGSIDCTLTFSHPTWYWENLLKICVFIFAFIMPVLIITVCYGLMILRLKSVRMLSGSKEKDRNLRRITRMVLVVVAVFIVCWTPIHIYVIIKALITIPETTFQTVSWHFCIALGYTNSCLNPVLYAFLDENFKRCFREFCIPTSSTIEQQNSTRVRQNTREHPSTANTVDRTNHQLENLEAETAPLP

D(1A) dopamine receptor = D(1A) dopamine receptor (Rattus norvegicus, UniProt P18901)
Chain of D(1A) dopamine receptor (P18901 whole entry): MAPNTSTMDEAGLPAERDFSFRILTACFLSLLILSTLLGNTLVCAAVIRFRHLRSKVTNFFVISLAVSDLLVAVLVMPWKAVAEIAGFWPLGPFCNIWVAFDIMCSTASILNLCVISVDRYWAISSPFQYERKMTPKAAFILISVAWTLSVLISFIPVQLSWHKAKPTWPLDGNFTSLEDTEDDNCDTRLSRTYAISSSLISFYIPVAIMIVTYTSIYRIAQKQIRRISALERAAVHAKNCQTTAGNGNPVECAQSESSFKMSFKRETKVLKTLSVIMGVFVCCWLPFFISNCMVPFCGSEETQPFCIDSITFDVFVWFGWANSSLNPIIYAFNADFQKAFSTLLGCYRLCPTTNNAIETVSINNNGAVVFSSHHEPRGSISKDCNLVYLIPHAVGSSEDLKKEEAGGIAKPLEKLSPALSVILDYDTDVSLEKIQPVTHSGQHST

[1] = target: T2, 5-hydroxytryptamine receptor 2C (Sus scrofa, UniProt G7ZKZ7)
T2 sequence (G7ZKZ7 whole entry): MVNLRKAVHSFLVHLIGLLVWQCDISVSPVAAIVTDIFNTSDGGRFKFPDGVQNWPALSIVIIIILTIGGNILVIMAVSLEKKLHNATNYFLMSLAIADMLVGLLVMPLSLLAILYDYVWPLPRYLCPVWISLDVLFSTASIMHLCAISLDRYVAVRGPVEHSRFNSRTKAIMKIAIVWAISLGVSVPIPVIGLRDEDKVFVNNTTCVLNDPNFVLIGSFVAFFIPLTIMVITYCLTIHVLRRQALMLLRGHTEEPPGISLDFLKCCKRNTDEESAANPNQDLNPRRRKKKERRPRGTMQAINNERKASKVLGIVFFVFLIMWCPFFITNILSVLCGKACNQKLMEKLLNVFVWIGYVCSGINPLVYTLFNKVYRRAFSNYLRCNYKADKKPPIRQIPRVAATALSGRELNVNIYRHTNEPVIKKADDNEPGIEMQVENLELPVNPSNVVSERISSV

[2] = target: T3, 5-hydroxytryptamine receptor 1A (Rattus norvegicus, UniProt P19327)
T3 sequence (P19327 whole entry): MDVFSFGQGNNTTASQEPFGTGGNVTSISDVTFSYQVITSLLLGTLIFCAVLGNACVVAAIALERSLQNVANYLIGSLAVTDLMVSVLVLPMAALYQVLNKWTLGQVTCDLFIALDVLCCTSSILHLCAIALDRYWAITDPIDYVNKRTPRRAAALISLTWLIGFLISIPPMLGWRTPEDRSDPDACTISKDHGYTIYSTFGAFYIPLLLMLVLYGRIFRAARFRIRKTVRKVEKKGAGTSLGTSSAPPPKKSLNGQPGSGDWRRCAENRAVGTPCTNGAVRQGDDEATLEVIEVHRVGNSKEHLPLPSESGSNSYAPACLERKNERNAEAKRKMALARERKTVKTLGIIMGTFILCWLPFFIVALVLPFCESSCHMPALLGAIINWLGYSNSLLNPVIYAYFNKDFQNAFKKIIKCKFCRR

[3] = target: Substance-P receptor (Rattus norvegicus) (UniProt P14600)
Chain of Substance-P receptor (Rattus norvegicus) (P14600 whole entry, looked up): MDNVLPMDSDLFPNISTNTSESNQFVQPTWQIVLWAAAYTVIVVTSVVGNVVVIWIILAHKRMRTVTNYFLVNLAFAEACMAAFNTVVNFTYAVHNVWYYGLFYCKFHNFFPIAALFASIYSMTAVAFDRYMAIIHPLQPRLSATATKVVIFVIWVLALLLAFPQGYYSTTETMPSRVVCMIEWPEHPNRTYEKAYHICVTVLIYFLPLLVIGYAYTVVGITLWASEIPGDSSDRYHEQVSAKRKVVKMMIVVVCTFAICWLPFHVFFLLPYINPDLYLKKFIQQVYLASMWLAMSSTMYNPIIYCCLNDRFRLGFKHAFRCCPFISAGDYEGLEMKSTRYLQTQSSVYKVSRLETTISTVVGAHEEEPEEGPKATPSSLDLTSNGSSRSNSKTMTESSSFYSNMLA

[4] = target: T4, Cysteinyl leukotriene receptor 1 (Cavia porcellus, UniProt Q2NNR5)
T4 sequence (Q2NNR5 whole entry): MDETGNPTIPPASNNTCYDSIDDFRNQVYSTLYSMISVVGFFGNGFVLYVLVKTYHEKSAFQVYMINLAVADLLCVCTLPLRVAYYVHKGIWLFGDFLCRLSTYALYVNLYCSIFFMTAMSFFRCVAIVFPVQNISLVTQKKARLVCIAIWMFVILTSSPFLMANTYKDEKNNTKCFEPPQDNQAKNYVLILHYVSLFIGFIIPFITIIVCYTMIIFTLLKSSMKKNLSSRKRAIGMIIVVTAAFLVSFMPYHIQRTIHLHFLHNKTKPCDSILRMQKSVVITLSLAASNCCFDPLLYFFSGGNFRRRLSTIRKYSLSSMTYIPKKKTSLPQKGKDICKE

[5] = target: 5-hydroxytryptamine 1D receptor (Bos taurus, UniProt Q8MI13)
Chain of 5-hydroxytryptamine 1D receptor (Q8MI13 whole entry): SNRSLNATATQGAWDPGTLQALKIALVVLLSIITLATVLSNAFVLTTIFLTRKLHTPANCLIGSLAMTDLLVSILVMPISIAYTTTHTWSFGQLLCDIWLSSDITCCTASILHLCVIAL

Adenosine receptor A2a = Adenosine receptor A2a (Rattus norvegicus, UniProt P30543)
Chain of Adenosine receptor A2a (P30543 whole entry): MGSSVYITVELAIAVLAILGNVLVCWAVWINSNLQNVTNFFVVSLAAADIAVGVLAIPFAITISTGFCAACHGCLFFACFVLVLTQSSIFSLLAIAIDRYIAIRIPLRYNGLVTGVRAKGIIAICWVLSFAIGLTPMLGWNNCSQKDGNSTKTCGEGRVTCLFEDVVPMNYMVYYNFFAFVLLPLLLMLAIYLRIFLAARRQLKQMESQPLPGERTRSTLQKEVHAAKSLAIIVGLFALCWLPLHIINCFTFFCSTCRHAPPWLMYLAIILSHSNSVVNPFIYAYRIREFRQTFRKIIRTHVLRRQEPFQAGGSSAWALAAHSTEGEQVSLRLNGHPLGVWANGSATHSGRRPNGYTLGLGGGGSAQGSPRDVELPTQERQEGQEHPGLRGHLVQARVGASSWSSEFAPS

[6] = target: Delta-type opioid receptor (Rattus norvegicus, UniProt P33533)
Chain of Delta-type opioid receptor (P33533 whole entry): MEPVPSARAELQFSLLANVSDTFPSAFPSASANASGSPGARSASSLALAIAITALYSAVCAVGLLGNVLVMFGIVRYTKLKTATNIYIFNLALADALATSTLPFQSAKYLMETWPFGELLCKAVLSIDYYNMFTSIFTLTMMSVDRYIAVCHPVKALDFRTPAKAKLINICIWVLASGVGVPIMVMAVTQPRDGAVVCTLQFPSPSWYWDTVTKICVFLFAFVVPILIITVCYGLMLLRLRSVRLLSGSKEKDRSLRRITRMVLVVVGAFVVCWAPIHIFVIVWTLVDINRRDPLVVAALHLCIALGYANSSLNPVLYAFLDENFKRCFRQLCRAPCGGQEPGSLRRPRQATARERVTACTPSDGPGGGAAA

[7] = target: T5, Muscarinic acetylcholine receptor M2 (Rattus norvegicus, UniProt P10980)
T5 sequence (P10980 whole entry): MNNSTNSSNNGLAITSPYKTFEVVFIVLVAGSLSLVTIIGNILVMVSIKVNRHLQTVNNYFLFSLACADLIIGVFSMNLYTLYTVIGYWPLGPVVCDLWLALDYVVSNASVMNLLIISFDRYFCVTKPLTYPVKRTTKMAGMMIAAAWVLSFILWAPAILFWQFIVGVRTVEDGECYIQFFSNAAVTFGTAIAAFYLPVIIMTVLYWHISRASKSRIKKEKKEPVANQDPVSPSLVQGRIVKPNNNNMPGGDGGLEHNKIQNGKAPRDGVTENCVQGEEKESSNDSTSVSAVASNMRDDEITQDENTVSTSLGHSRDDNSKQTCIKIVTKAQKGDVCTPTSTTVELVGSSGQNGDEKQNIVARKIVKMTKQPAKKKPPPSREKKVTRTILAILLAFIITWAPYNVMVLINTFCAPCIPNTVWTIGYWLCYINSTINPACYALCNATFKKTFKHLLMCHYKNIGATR

Ki (Adenosine receptor A1) [µM]	Ki (Mu-type opioid receptor) [µM]	Ki (D(1A) dopamine receptor) [µM]	Ki [1] [µM]	Ki [2] [µM]	Ki [3] [µM]	Ki [4] [µM]	Ki [5] [µM]	Ki (Adenosine receptor A2a) [µM]	Ki [6] [µM]	Ki [7] [µM]	Structure (SMILES)
0.98	1.1	> 10	> 10	1.9	> 10	> 10	> 10	6.4	> 10	5.8	NC(=NCc1ccccc1)NC(=O)c1nc(Cl)c(N)nc1N [NSC_108107]
1.2	0.061	> 10	6.7	> 10	> 10	> 10	> 10	4.6	1	2.9	N=C(N)NC(=O)c1nc(Cl)c(N2CCCCCC2)nc1N

Structure (SMILES)	Ki (Adenosine receptor A1) [µM]	Ki (Mu-type opioid receptor) [µM]	Ki (D(1A) dopamine receptor) [µM]	Ki [1] [µM]	Ki [2] [µM]	Ki [3] [µM]	Ki [4] [µM]	Ki [5] [µM]	Ki (Adenosine receptor A2a) [µM]	Ki [6] [µM]	Ki [7] [µM]
N=C(N)NC(=O)c1nc(Cl)c(N)nc1N [3,5-diamino-N-carbamimidoyl-6-chloropyrazine-2-carboxamide]	11	> 10	> 10	> 10	> 10	> 10	> 10	> 10	17	> 10	> 10
